Experimental data taken from patent US6844151B1, “Methods for production of arrays with modified oligonucleotide and polynucleotide compositions” (Oligos Etc. Inc., priority 1999, dated 2005).
[pOEt] = p-ethoxy (ethyl phosphotriester) internucleotide linkage

Key:
[1] = test system: Regular RNA 20-mer oligonucleotide SEQ ID NO:1; assay: Tm of 20-mer duplexes, modified SEQ ID NO:2 strand bound to Regular RNA SEQ ID NO:1; assay type: binding; details: duplex with Regular RNA SEQ ID NO:1; 4 μM each; 50 mM NaCl, 10 mM PO4 buffer, pH 7.4
Experimental: (§1) The stability of duplexes having 2′-substituted nucleotides versus duplexes without such modification was tested by examining the Tm of these complexes. 4 μM each of 20-mer oligonucleotide (5′-ggt ggt tcc tcc tca gtc gg-3′; SEQ ID NO:1) and its complement (5′- ccg act gag aag gaa cca cc-3;SEQ ID NO:2) were bound in a solution of 50 mM NaCl, 10 mM PO4 buffer, pH 7.4. Each of the nucleotides of the oligonucleotide had the same 2′ group. Following binding, the melting temperature was determined as described. (See L. L. Cummins et al., Nucleic Acids Research 23:2019-2024 (1995).

[2] = test system: Regular DNA 20-mer oligonucleotide SEQ ID NO:1; assay: Tm of 20-mer duplexes, modified SEQ ID NO:2 strand bound to Regular DNA SEQ ID NO:1; assay type: binding; details: duplex with Regular DNA SEQ ID NO:1; 4 μM each; 50 mM NaCl, 10 mM PO4 buffer, pH 7.4
Experimental: as §1

Substance	Tm [1] [°C]	Tm [2] [°C]
2′-O-methyl: SEQ ID NO:2 20-mer, every nucleotide with 2′-O-methyl group (CCGACTGAGAAGGAACCACC; all 2'-O-methyl, backbone and T or U not given here)	79	–
Regular DNA: unmodified DNA 20-mer, SEQ ID NO:2 (5′-ccg act gag aag gaa cca cc-3′) (CCGACTGAGAAGGAACCACC; DNA, backbone not given here) [reference compound]	66	–
p-ethoxy DNA: SEQ ID NO:2 20-mer as p-ethoxy DNA (CCGACTGAGAAGGAACCACC; DNA, all [pOEt], methylation of C not given here)	–	55
p-ethoxy 2′-O-methyl: SEQ ID NO:2 20-mer as p-ethoxy 2′-O-methyl (CCGACTGAGAAGGAACCACC; all 2'-O-methyl, all [pOEt], T or U not given here)	71	–
p-ethoxy RNA: SEQ ID NO:2 20-mer as p-ethoxy RNA (CCGACTGAGAAGGAACCACC; RNA, all [pOEt], T or U not given here)	56	–
